Test results as given in patent US7074789B2, “Kinase inhibitors” (Amgen Inc., priority 1999, dated 2006).
Read-outs that look alike come from different tables or passages of the source.

How the values were obtained:
Format in all cases: biochemical
EGFR = biological target: T1, EGFR (Homo sapiens, UniProt P00533); assay: Kinase inhibition assay (33P transfer), EGFR; details: Table 2, kinase inhibition class; read-out: EGFR-1
T1 construct: Kinases are expressed as either kinase domains or full length constructs; made in house
Outline: (§1)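 Each enzyme, purified to near homogeneity by affinity chromatography, was incubated with ATP carrying 33P and a substrate polymer fixed to the plate. Unbound label was removed with dilute phosphoric acid (0.5%) before adding scintillant and counting. Potency is given as the compound level cutting label uptake by 50%.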

AKT = biological target: T2, AKT (Homo sapiens, UniProt Q9Y243); assay: Kinase inhibition assay (33P transfer), AKT; details: Table 2, kinase inhibition class; read-out: AKT3-1
T2 construct: Kinases are expressed as either kinase domains or full length constructs; made in house
Outline: (§2)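 Activity was read as 33P incorporation, counted by liquid scintillation after a 0.5% phosphoric acid wash, into poly(Glu,Tyr) 4:1 or poly(Arg,Ser) 3:1 substrates coated on plates. Enzymes were tagged (GST or polyHis) kinase domains or full-length proteins from bacterial or insect-cell expression, sometimes with regulatory polypeptides.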

IGFR-1 [1] = biological target: T3, IGFR-1 (Homo sapiens, UniProt P08069); assay: Kinase inhibition assay (33P transfer), IGFR-1; details: Table 2, kinase inhibition class
T3 construct: Kinases are expressed as either kinase domains or full length constructs; made in house

Itk = biological target: T4, Itk (Homo sapiens, UniProt Q08881); assay: Kinase inhibition assay (33P transfer), Itk; details: read-out: Itk-1
T4 construct: Kinases are expressed as either kinase domains or full length constructs; made in house
T4 sequence (Q08881 1-620): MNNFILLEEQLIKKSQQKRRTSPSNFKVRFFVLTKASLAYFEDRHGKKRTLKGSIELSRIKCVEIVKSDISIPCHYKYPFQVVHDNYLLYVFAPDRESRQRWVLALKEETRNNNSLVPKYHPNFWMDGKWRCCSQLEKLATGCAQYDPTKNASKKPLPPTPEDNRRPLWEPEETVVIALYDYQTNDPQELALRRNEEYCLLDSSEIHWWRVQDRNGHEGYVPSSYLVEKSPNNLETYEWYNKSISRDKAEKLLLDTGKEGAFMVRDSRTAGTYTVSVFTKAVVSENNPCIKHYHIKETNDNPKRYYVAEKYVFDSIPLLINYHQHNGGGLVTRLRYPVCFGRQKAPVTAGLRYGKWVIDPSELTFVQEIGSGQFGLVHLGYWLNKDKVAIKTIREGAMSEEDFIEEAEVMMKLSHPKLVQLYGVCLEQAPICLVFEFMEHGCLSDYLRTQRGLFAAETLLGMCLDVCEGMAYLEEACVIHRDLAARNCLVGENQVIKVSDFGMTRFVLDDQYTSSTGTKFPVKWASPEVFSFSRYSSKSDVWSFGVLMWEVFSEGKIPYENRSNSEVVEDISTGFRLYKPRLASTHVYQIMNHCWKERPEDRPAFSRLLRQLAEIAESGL
Outline: as §1

Kdr = biological target: T5, Kdr (Homo sapiens, UniProt P35968); assay: Kinase inhibition assay (33P transfer), Kdr; details: read-out: KDR-1
T5 construct: Kinases are expressed as either kinase domains or full length constructs; made in house
Outline: as §2

c-Met = biological target: T6, c-Met (Homo sapiens, UniProt P08581); assay: Kinase inhibition assay (33P transfer), c-Met; details: Table 2, kinase inhibition class; read-out: Met-1
T6 construct: Kinases are expressed as either kinase domains or full length constructs; made in house
Outline: as §1

Zap-70 = biological target: T7, Zap-70 (Homo sapiens, UniProt P43403); assay: Kinase inhibition assay (33P transfer), Zap-70; details: read-out: Zap-1
T7 construct: Kinases are expressed as either kinase domains or full length constructs; made in house
T7 sequence (P43403 1-619): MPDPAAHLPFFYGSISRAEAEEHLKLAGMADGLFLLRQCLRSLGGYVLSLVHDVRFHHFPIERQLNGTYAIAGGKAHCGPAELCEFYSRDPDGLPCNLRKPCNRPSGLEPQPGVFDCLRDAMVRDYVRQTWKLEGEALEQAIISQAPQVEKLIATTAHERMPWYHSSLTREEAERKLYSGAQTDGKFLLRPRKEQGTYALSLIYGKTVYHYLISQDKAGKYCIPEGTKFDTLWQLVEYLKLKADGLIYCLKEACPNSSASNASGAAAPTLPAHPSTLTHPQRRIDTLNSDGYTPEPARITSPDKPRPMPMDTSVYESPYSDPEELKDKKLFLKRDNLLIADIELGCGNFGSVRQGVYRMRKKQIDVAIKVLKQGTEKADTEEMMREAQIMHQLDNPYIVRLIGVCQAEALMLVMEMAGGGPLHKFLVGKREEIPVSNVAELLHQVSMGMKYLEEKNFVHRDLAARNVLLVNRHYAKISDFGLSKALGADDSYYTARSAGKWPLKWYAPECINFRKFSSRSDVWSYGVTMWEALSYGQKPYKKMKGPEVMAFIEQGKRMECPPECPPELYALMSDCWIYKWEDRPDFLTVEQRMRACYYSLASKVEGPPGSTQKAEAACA
Outline: as §2

Lck = biological target: T8, Lck (Homo sapiens, UniProt P06239); assay: Kinase inhibition assay (33P transfer), Lck; details: read-out: Lck-1
T8 construct: Kinases are expressed as either kinase domains or full length constructs; made in house
Outline: as §2

ErbB2 = biological target: T9, ErbB2 (Homo sapiens, UniProt P04626); assay: Kinase inhibition assay (33P transfer), ErbB2; details: read-out: ErbB2-2
T9 construct: Kinases are expressed as either kinase domains or full length constructs; made in house
Outline: as §1

IGFR-1 [2] = biological target: T3, IGFR-1; assay: Kinase inhibition assay, IGFR-1 (Table 2); details: Table 2, kinase inhibition class
PDGFRB = biological target: T10, PDGFRB (Homo sapiens, UniProt P09619); assay: Kinase inhibition assay (33P transfer), PDGFRB; details: read-out: PDGFRB-1
T10 construct: Kinases are expressed as either kinase domains or full length constructs; made in house

T6 sequence (P08581 25-1390): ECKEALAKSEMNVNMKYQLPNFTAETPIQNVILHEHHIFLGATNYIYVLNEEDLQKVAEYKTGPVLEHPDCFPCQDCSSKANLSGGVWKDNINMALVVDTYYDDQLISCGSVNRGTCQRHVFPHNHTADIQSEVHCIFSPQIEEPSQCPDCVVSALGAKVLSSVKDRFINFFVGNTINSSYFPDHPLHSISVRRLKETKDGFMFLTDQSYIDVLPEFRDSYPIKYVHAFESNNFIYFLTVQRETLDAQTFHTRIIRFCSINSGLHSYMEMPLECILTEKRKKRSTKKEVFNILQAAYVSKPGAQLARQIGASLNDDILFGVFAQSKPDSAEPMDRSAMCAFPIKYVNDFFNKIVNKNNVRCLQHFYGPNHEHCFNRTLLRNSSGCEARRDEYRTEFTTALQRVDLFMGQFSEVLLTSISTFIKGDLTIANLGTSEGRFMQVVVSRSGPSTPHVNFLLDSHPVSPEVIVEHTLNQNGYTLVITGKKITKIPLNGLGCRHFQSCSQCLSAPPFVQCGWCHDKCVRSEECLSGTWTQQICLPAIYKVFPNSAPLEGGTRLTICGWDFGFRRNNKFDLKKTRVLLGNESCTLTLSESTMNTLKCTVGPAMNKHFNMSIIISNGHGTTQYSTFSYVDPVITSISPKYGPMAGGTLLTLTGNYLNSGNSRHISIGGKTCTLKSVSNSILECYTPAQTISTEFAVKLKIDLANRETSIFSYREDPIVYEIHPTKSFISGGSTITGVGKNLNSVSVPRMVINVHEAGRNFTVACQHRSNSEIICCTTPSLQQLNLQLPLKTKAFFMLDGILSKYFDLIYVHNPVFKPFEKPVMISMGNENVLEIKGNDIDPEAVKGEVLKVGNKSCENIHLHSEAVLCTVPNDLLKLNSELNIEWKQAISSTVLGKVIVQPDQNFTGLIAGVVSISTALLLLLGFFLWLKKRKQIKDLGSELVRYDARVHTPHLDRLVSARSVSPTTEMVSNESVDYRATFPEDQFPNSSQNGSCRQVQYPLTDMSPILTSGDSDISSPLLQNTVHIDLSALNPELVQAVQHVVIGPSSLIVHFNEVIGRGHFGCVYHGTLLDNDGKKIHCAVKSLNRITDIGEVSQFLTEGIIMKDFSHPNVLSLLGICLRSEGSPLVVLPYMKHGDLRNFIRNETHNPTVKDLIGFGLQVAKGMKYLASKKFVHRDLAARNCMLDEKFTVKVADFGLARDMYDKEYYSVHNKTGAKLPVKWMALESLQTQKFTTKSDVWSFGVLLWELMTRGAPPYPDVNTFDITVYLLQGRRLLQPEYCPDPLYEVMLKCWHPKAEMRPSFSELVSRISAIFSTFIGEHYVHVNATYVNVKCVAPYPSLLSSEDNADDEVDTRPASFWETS
T2 sequence (Q9Y243 whole entry, the tested form may be a part): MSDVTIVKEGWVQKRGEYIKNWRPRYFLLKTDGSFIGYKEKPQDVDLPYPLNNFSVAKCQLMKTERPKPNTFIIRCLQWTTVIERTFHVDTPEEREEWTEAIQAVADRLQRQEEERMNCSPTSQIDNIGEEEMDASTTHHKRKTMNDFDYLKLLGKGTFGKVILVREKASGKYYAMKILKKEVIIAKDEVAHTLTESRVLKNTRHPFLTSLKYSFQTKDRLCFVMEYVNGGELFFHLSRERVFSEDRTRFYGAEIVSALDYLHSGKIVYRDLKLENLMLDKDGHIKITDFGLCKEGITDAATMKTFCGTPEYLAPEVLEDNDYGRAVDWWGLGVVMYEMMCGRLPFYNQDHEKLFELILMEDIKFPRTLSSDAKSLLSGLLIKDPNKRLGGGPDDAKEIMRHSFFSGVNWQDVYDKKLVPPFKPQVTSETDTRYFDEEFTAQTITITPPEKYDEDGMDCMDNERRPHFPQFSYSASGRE
T1 sequence (P00533 25-1210, species assumed): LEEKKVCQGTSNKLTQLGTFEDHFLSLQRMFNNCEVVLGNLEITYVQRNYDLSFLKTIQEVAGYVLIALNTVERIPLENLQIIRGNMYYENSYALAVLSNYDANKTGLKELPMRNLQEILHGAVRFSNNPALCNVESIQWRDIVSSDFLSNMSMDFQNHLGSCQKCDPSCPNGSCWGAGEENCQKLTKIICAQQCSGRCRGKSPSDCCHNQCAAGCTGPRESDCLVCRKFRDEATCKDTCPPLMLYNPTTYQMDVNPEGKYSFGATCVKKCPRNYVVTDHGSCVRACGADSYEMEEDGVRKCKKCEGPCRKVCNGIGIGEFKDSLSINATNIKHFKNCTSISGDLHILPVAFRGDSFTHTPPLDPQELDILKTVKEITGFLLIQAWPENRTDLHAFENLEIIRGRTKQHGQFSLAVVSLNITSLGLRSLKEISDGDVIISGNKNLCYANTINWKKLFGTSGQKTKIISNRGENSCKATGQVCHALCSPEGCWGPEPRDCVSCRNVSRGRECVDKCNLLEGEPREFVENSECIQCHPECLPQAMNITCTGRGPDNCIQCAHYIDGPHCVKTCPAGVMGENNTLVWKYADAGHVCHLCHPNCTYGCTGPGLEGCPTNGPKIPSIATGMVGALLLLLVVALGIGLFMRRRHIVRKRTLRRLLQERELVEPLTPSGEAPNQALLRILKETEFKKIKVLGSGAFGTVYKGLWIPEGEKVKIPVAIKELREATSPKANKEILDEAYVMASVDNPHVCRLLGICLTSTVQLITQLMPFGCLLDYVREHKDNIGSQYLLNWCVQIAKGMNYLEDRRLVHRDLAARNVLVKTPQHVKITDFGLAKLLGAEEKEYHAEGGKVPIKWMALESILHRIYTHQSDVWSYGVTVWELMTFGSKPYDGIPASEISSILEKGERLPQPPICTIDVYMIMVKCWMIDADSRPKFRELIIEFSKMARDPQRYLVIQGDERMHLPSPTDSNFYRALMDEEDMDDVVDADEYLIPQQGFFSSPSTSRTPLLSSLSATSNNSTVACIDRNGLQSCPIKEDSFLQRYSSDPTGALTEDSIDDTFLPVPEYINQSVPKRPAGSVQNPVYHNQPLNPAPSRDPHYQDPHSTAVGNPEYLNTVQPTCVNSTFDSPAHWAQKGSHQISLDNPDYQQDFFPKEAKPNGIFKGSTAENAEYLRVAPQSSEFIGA
T5 sequence (P35968 20-1356, species assumed): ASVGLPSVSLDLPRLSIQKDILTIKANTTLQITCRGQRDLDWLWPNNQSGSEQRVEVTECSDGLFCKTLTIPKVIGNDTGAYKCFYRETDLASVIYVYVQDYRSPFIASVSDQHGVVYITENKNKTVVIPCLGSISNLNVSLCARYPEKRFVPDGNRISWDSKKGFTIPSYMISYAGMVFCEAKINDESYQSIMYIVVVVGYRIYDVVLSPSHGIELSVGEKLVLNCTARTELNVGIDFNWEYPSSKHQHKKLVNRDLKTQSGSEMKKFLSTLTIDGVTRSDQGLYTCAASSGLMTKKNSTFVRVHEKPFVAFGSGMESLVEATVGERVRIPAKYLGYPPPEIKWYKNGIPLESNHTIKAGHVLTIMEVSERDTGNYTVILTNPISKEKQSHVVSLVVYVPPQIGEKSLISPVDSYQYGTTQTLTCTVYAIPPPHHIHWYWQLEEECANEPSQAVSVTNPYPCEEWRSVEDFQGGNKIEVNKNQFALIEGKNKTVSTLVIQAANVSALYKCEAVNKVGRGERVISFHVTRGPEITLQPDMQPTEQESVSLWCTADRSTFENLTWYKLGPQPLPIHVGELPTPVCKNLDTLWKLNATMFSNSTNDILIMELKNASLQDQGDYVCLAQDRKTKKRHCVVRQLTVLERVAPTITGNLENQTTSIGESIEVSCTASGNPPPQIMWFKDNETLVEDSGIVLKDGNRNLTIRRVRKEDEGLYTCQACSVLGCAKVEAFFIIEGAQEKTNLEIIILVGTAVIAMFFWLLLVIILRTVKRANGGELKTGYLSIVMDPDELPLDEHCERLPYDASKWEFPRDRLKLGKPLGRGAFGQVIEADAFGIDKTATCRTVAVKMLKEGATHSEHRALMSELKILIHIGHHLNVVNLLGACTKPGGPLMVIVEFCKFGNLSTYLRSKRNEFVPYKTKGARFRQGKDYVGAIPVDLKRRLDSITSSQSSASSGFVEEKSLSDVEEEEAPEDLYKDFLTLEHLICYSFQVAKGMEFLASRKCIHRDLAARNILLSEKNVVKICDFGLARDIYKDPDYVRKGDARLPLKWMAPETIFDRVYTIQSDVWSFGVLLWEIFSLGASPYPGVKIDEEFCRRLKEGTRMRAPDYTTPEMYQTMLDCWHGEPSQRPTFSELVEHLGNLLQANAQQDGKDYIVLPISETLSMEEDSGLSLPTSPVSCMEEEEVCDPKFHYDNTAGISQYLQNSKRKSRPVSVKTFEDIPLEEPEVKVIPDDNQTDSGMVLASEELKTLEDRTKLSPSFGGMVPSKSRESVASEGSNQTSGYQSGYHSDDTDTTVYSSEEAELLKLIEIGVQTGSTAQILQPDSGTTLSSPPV
T8 sequence (P06239 whole entry, species assumed, the tested form may be a part): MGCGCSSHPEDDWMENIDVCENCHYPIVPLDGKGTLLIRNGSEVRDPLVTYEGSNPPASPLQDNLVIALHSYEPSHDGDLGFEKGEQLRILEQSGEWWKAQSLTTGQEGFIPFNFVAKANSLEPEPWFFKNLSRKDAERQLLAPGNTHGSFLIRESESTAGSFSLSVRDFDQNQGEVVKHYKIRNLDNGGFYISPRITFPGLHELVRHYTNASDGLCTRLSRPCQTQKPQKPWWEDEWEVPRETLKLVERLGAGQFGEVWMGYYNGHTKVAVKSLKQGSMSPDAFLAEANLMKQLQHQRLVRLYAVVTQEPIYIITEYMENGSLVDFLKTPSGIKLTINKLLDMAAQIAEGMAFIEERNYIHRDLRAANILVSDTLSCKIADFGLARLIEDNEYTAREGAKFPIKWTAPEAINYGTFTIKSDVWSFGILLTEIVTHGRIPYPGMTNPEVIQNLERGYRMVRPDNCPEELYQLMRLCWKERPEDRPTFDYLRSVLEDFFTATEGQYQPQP

IC50 (EGFR) [µM] | IC50 (AKT) [µM] | IC50 (IGFR-1 [1]) [µM] | IC50 (Itk; Table 3) [µM] | IC50 (Kdr; Table 3) [µM] | IC50 (c-Met) [µM] | IC50 (Zap-70; Table 3) [µM] | IC50 (Lck; Table 3) [µM] | IC50 (ErbB2) [µM] | IC50 (IGFR-1 [2]) [µM] | IC50 (PDGFRB) [µM] | IC50 (Itk) [µM] | IC50 (Kdr) [µM] | IC50 (Zap-70) [µM] | IC50 (Lck) [µM] | SMILES
> 15.1 | > 15.1 | > 15.1 | > 15.1 | > 15.1 | > 15.1 | > 15.1 | > 15.1 |  |  |  |  |  |  |  | NC(=O)c1ccc(Nc2ncnc(-c3cccs3)n2)cc1 [Compound 354]
> 9.29 | 7.22 to 9.29 | > 9.29 | > 9.29 | 4.95 to 7.22 | > 9.29 | > 9.29 | > 9.29 |  |  |  |  |  |  |  | CC(C)(C)OC(=O)Nc1ccc(Nc2ncnc(Nc3ccc(OCc4ccccc4)cc3)n2)cc1 [Compound 162]
> 12.6 | > 12.6 | > 12.6 | > 12.6 | > 12.6 | > 12.6 | > 12.6 | > 12.6 |  |  |  |  |  |  |  | COc1cc(Nc2ncnc(Nc3ncncn3)n2)cc(OC)c1OC [Compound 254]
> 15.1 | > 15.1 | > 15.1 | > 15.1 | 8.04 to 11.7 | 11.7 to 15.1 | > 15.1 | > 15.1 |  |  |  |  |  |  |  | c1csc(-c2ncnc(Nc3ccc4c(c3)OCO4)n2)c1 [Compound 1072]
> 15.1 | > 15.1 | > 15.1 | > 15.1 | > 15.1 | > 15.1 | > 15.1 | > 15.1 |  |  |  |  |  |  |  | NC(=O)c1cccc(Nc2ncnc(-c3cccs3)n2)c1 [Compound 358]
> 16.1 | > 16.1 | > 16.1 | > 16.1 | > 16.1 | > 16.1 | > 16.1 | > 16.1 |  |  |  |  |  |  |  | N#Cc1ccc(Nc2ncnc(-c3cccs3)n2)cc1 [Compound 356]
> 10.3 | > 10.3 | > 10.3 | > 10.3 | 5.51 to 8.04 | > 10.3 | > 10.3 | > 10.3 |  |  |  |  |  |  |  | COc1cc(Nc2ncnc(-n3cc(OC(C)=O)c4ccccc43)n2)cc(OC)c1OC [Compound 205]
> 10.6 | > 10.6 | > 10.6 | > 10.6 | 5.65 to 8.25 | > 10.6 | > 10.6 | > 10.6 |  |  |  |  |  |  |  | COc1cc(Nc2ncnc(N3CCc4ccc([N+](=O)[O-])cc43)n2)cc(OC)c1OC [Compound 191]
> 16.2 | > 16.2 | > 16.2 | > 16.2 | > 16.2 | > 16.2 | > 16.2 | > 16.2 |  |  |  |  |  |  |  | OCc1ccc(Nc2ncnc(-c3ccccc3)n2)cc1 [Compound 165]
1.05 to 6.32 | > 11.8 |  |  |  | > 11.8 |  |  | > 11.8 | > 11.8 | > 11.8 | > 11.8 | > 11.8 | > 11.8 | > 11.8 | CN(c1cccc(Cl)c1)c1ncnc(Nc2ccc(C(F)(F)F)cc2)n1 [Compound 744]
> 11.4 | > 11.4 |  |  |  | > 11.4 |  |  | > 11.4 | > 11.4 | > 11.4 | > 11.4 | > 11.4 | > 11.4 | > 11.4 | CN(c1cccc(Cl)c1)c1ncnc(N[C@@H]2CCN(Cc3ccccc3)C2)n1 [Compound 755]
0.799 to 4.79 | 0.799 to 4.79 |  |  |  | 0.799 to 4.79 |  |  | 0.799 to 4.79 | 0.799 to 4.79 | 0.799 to 4.79 | 0.799 to 4.79 | 0.799 to 4.79 | 0.799 to 4.79 | 0.799 to 4.79 | CNS(=O)(=O)Cc1ccc(Nc2ncnc(Nc3ccc4c(cnn4Cc4ccccc4)c3)n2)cc1 [Compound 736]
< 1.09 | > 12.2 |  |  |  | > 12.2 |  |  | 6.53 to 9.53 | 9.53 to 12.2 | 1.09 to 6.53 | > 12.2 | 6.53 to 9.53 | > 12.2 | 1.09 to 6.53 | COc1cc(Nc2ncnc(NCc3ccccc3)n2)cc(OC)c1OC [Compound 630]
< 0.966 | > 10.9 |  |  |  | 5.79 to 8.45 |  |  | 0.966 to 5.79 | < 0.966 | 8.45 to 10.9 | 8.45 to 10.9 | 5.79 to 8.45 | > 10.9 | 0.966 to 5.79 | COC(=O)Cc1cccc(Nc2ncnc(Nc3cccc(Br)c3)n2)c1 [Compound 540]
> 13.8 | > 13.8 |  |  |  | > 13.8 |  |  | > 13.8 | > 13.8 | > 13.8 | > 13.8 | > 13.8 | > 13.8 | > 13.8 | Cc1ccc2c(c1)CCCN2c1ncnc(NCC2CCCO2)n1 (stereo not drawn) [Compound 759]
< 0.836 | 7.31 to 9.4 |  |  |  | 0.836 to 5.02 |  |  | 0.836 to 5.02 | 0.836 to 5.02 | 0.836 to 5.02 | 5.02 to 7.31 | 0.836 to 5.02 | 5.02 to 7.31 | 0.836 to 5.02 | c1ccc(Cn2ncc3cc(Nc4ncnc(Nc5ccc(N6CCOCC6)cc5)n4)ccc32)cc1 [Compound 729]
> 10.5 | > 10.5 |  |  |  | 5.58 to 8.13 |  |  | > 10.5 | 0.929 to 5.58 | > 10.5 | 5.58 to 8.13 | > 10.5 | > 10.5 | > 10.5 | COC(=O)c1ccc(-c2cc(Nc3ncnc(Nc4cccc(C(N)=O)c4)n3)[nH]n2)cc1 [Compound 990]
< 1.12 | > 12.6 |  |  |  | > 12.6 |  |  | 6.75 to 9.84 | > 12.6 | > 12.6 | > 12.6 | 1.12 to 6.75 | > 12.6 | > 12.6 | Fc1ccc(Nc2ncnc(Nc3ccc4cn[nH]c4c3)n2)cc1Cl [Compound 719]
< 1.16 | > 13.1 |  |  |  | 1.16 to 6.98 |  |  | 1.16 to 6.98 | < 1.16 | > 13.1 | 1.16 to 6.98 | 1.16 to 6.98 | > 13.1 | 1.16 to 6.98 | CC(C)(C)c1cc(Nc2ncnc(Nc3cccc(Cl)c3)n2)[nH]n1 [Compound 1007]
< 1.08 | > 12.2 |  |  |  | 1.08 to 6.49 |  |  | < 1.08 | > 12.2 | 6.49 to 9.46 | > 12.2 | < 1.08 | > 12.2 | > 12.2 | CN(c1cccc(Cl)c1)c1ncnc(Nc2cccc(CC(=O)O)c2)n1 [Compound 706]
0.982 to 5.89 | > 11 |  |  |  | 5.89 to 8.59 |  |  | 8.59 to 11 | > 11 | > 11 | > 11 | 8.59 to 11 | 8.59 to 11 | 0.982 to 5.89 | COc1cc(Nc2ncnc(N[C@@H]3CCCc4ccccc43)n2)cc(OC)c1OC [Compound 620]
